The text below walks through data of patent US10017492B2 (KANGPU BIOPHARMACEUTICALS, LTD., priority 2014, dated 2018).

Molecules are shown by their SMILES.

The subject of assay [1] is MM.1S cells (myeloma cells). Briefly: Cell proliferation assay (MTS), MM.1S myeloma cells. The assay is classed as cell-based. The following applies: Homo sapiens, MM1.S, 72 hours, read-out: IC50 values of MMIS Inhibition. A digest of the protocol: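 MM.1S myeloma cells were seeded at 1.8×10^3 per well in RPMI and rested 24 hours before 72 hours of compound exposure at 37° C., 5% CO2, with final DMSO at 0.5%. Viability was read by MTS at OD490 nm, using OD650 nm as reference. IC50 came from variable-slope curves, with the 0.5% DMSO control set as 0% inhibition.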

Assay [2] deals with Rec-1 cells (Mantle cell lymphoma cells). Nature of the assay: CTG cell proliferation assay, Rec-1 cells. The assay is classed as cell-based. The following applies: Homo sapiens, Rec1, 72-120 hours, CellTiter-Glo, read-out: IC50 Value of Rec-1 Inhibition. As to the method: (§1) CTG Cell Proliferation Assay
(§2) Rec-1 cells (Mantle cell lymphoma cells) (ATCC, catalog number CRL-3004), Namalwa.CSN/70 cells (Burkitt lymphoma cells) (DSMZ, catalog number ACC-70), and WSU-DLCL-2 cells (diffuse large B cell lymphoma cells) (DSMZ, catalog number ACC-575) were seeded at (5-15)×10^3 per well to a 96-well plate with transparent bottom and white wall (Corning, catalog number CLS3903) containing specific medium. The plate was placed in an incubator and incubated for 24 hours at 37° C. under 5% CO2. Compounds were prepared as 150 mM stock solutions with DMSO (Sigma, catalog number 276855), and were diluted with the medium to the desired concentration (the final concentration of DMSO was 0.2%) and then were added to each well, incubated in an incubator for 72-120 hours at 37° C. under 5% CO2. Then, 100 μl CellTiter-Glo® cell activity assay reagent (Promega, catalog number G7570) was added to each well. Mixing proceeded for 10 minutes on a shaker to induce cytolysis. The 96-well plate was placed at room temperature for 10 minutes to make the luminous signal stable. A white base film was pasted at the bottom of the culture plate. EnSpire was used to test the plate.

Assay [3] relates to Namalwa.CSN/70 cells (Burkitt lymphoma cells). Briefly: CTG cell proliferation assay, Namalwa.CSN/70 cells. The assay is classed as cell-based. The settings on record: 72-120 hours, CellTiter-Glo, read-out: IC50 Value of Namalwa.CSN/70 Inhibition. As to the method:
as §1, §2
(In ATP-based viability assays light output follows the ATP content of the culture.)

Assay [4] relates to TNF-α. Nature of the assay: TNF-α activity inhibiting assay (LPS-stimulated peripheral blood, ELISA). The assay is classed as cell-based, human. The following applies: Homo sapiens, compound 100 nM, diluted peripheral blood of healthy volunteers, LPS 10 ng/mL, 6 hours, read-out: Inhibitory Rate on TNF-α (%). In outline:
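Human whole blood (EDTA), diluted 5-fold in RPMI 1640, pre-incubated 60 min at 37 °C with compound at 100 nM final (0.2% DMSO), then stimulated 6 h with 10 ng/mL LPS. Supernatant TNF-α measured by ELISA (OD450); inhibition relative to 0.2% DMSO control.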
(In general: ELISA stands for enzyme-linked immunosorbent assay.)

Assay [5] has as its system WSU-DLCL-2 cells (diffuse large B cell lymphoma cells). Briefly: CTG cell proliferation assay, WSU-DLCL-2 cells. The assay is classed as cell-based. The following applies: Homo sapiens, WSUDLCL2, WSU-DLCL-2 cells, 72-120 hours, CellTiter-Glo; read-out: IC50 Value of WSU-DLCL2 Inhibition. As to the method: as §1, §2

Take `[2H][C@]1(N2Cc3c(OCc4cc(CN5CCOCC5)ccc4F)cccc3C2=O)CCC(=O)NC1=O` [Compound A403, (S)-3-deuterium-3-(4-((2-fluoro-5-(morpholinomethyl)benzyl)oxy)-1-oxoisoindolin-2-yl)piperidine-2,6-dione]: the IC50 in assay [1] is less than 300 nM; in assay [2], less than 100 nM; in assay [3], greater than 300000 nM; in assay [5], 401 to 300000 nM. Besides, the inhibition at 0.1 µM in assay [4] was no less than 50%.
The like results for `[2H][C@]1(N2Cc3c(NCc4ccc(OC)cc4F)cccc3C2=O)CCC(=O)NC1=O` [Compound A356, (S)-3-deuterium-3-(4-((2-fluoro-4-methoxybenzyl)amino)-1-oxoisoindolin-2-yl)piperidine-2,6-dione] were, in that order, less than 300 nM, less than 100 nM, 100 to 400 nM, 401 to 300000 nM and no less than 50%.
Regarding `[2H][C@]1(N2Cc3c(OCc4cccc(CN5CCOCC5)c4F)cccc3C2=O)CCC(=O)NC1=O` [Compound A404, (S)-3-deuterium-3-(4-((2-fluoro-3-(morpholinomethyl)benzyl)oxy)-1-oxoisoindolin-2-yl)piperidine-2,6-dione], the IC50 was less than 300 nM in assay [1], less than 100 nM in assay [2], greater than 300000 nM in assay [3] and 401 to 300000 nM in assay [5]. Moreover, in assay [4], the inhibition at 0.1 µM was no less than 50%.
Turning to `O=C1CCC(N2Cc3c(NCc4cccc(CN5CCOCC5)c4F)cccc3C2=O)C(=O)N1` (centres unmarked) [Compound A381, 3-(4-((2-fluoro-3-(morpholinomethyl)benzyl)amino)-1-oxoisoindolin-2-yl)piperidine-2,6-dione], the IC50 in assay [1] was less than 300 nM; in assay [2], less than 100 nM; in assay [3], greater than 300000 nM; in assay [5], 401 to 300000 nM. For the same compound, the inhibition at 0.1 µM in assay [4] was no less than 50%.
For `[2H][C@]1(N2Cc3c(NCc4ccc(CN5CCOCC5)cc4F)cccc3C2=O)CCC(=O)NC1=O` [Compound A402] the same measures were less than 300 nM, less than 100 nM, greater than 300000 nM, less than 100 nM and no less than 50%.
The like results for `O=C1CCC(N2Cc3c(NCc4cc(CN5CCOCC5)ccc4F)cccc3C2=O)C(=O)N1` (centres unmarked) [Compound A383, 3-(4-((2-fluoro-5-(morpholinomethyl)benzyl)amino)-1-oxoisoindolin-2-yl)piperidine-2,6-dione] were, in that order, less than 300 nM, 100 to 400 nM, greater than 300000 nM, 401 to 300000 nM and no less than 50%.
On to `Nc1cc(F)cc2c1CN(C1CCC(=O)NC1=O)C2=O` (centres unmarked) [Compound I-28, 3-(4-amino-6-fluoro-1-oxoisoindolin-2-yl)piperidine-2,6-dione], for which the IC50 in assay [1] was less than 300 nM; in assay [2] it was less than 100 nM; in assay [3] it was greater than 300000 nM; in assay [5], greater than 300000 nM. The inhibition at 0.1 µM in assay [4] was greater than 50%.
